The values below come from US8303964B2, “Viable non-toxic gram-negative bacteria” (priority 2006, dated 2012).

One series has as its system KPM22. In words: microbe, parasite or virus in culture. As to conditions: for MIC: Escherichia coli, read-out: Minimum Inhibitory Concentration KPM22. The series is classed as cell-based, E. coli. The protocol:
(§1) The antibiotics used were from Sigma with the exception of cephaloridine, which was obtained from MicroSource Discovery Systems. Antibiotics were chosen based on their varying mode of action and entry into the cell. […] Colonies from LB agar plate were scraped and suspended in media (˜10^4 cells per mL) with varying concentrations of antibiotics. Cultures were incubated with shaking (˜200 rpm) at 37° C. for 18 hours at which point growth was scored by visual inspection.

The next series relates to BW30270. Kind of series: microbe, parasite or virus in culture. It is filed as cell-based, E. coli K-12. As to conditions: LB media, 37° C., 18 hours, lowest concentration that completely inhibited growth; for MIC: Escherichia coli, read-out: Minimum Inhibitory Concentration BW30270. The procedure:
as §1

In a further series the target is gutQ (Escherichia coli, UniProt P17115). As to conditions: for alternate substrate, product appearance: determined by 31P-NMR. The protocol: This example describes enzyme assays used in experiments conducted during the course of the present invention. […] All plates contained internal Ru5P standards and appropriate A5P controls in triplicate. One unit of enzyme activity is defined as the conversion of 1 μmol of sugar phosphate per minute at 37° C.
This example describes the characterization of gutQ. […] After 10 minutes at 37° C., reactions containing the potential alternate substrates D-arabinose, D-ribose 5-phosphate, D-glucose 6-phosphate (G6P), D-glucose 1-phosphate, D-glucosamine 6-phosphate, or D-mannose 6-phosphate were quenched and the presence of ketose was determined. Product appearance for D/L-glyceraldehyde 3-phosphate, D-erythrose 4-phosphate, and D-fructose 6-phosphate was assayed by ^31P NMR. Kinetic constants were determined at 37° C. using the discontinuous microplate assay and were initiated by the addition of substrate. Concentrations typically ranged from 0.2Km to 10Km. […] Initial rates (v0) were determined in triplicate and fit to the standard Michaelis-Menten equation using nonlinear least-squares regression to determine Km and kcat values for both the formation and disappearance of Ru5P.

A further series deals with kdsD (Escherichia coli, UniProt P45395). As to conditions: cited from earlier work; for kcat / Km: kdsD; for kcat: A5P to Ru5P or Ru5P to A5P, labelled by substrate.
Substrate in series [1]: O=C[C@@H](O)[C@H](O)[C@H](O)COP(=O)(O)O
In words: purified protein, by the assay type. As to conditions: other: gutQ, 37° C., pH 8.25.

Substrate in series [2]: O=C(CO)[C@H](O)[C@H](O)COP(=O)(O)O
Kind of series: purified protein, by the assay type. As to conditions: other: gutQ, 37° C., pH 8.25.

[3] abbreviates: LB media, 37° C., 18 hours, lowest concentration that completely inhibited growth.

Values after ≈ are worked out from the molar mass of the structure shown. Like-named read-outs stand apart in the source and are kept apart here. Bridge positions count the residues as written; N and C are the ends. Square brackets hold non-standard residues; d marks the D form. Peptide text beside a SMILES is read from it. * marks the point of attachment. Ileψ(thiazoline)Cys = CC[C@H](C)[C@H](N)C1=N[C@H](C(=O)*)CS1; dOrn = NCCC[C@@H](N)C(=O)O

Sequence of kdsD (P45395 whole entry): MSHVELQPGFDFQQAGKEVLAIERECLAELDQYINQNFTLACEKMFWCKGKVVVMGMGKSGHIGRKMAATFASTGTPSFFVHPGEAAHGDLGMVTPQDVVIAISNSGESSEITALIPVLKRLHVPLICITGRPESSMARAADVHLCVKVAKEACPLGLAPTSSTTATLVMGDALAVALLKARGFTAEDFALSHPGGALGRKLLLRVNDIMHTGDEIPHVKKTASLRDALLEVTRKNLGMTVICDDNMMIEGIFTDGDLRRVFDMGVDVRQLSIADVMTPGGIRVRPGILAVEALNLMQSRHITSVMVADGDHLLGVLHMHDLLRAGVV

On to `NC[C@H]1O[C@H](O[C@H]2[C@H](O)[C@@H](O[C@H]3O[C@H](CO)[C@@H](O)[C@H](N)[C@H]3O)[C@H](N)C[C@@H]2N)[C@H](O)[C@@H](O)[C@@H]1O` [Kanamycin], for which the MIC in the series on KPM22 (setting [3]) was found to be 1 µg/mL (≈ 2.06 µM); in the series on BW30270, 16 µg/mL (≈ 33 µM). The “Fold Difference in MIC” value in the series with KPM22 (MIC BW30270 versus MIC KPM22) worked out at 16 fold.

For the molecule `CO[C@@H]1[C@@H](OC(N)=O)[C@@H](O)[C@H](Oc2ccc3c(O)c(NC(=O)c4ccc(O)c(CC=C(C)C)c4)c(=O)oc3c2C)OC1(C)C` [Novobiocin], the MIC in the series with KPM22 (setting [3]) stood at 1 µg/mL (≈ 1.63 µM).

On to `O=C(O)CN(CCN(CC(=O)O)CC(=O)O)CC(=O)O` [EDTA], for which the “Activation by EDTA” value at gutQ and at kdsD was “Yes” in each case.

Turning to `O=CC(O)COP(=O)(O)O` [D/L-glyceraldehyde 3-phosphate], the “alternate substrate, product appearance” value on gutQ is “served as alternate substrates”.

`CC[C@H](C)[C@H](N)C1=N[C@H](C(=O)N[C@@H](CC(C)C)C(=O)N[C@H](CCC(=O)O)C(=O)N[C@H](C(=O)N[C@H]2CCCCNC(=O)[C@H](CC(N)=O)NC(=O)[C@@H](CC(=O)O)NC(=O)[C@H](Cc3cnc[nH]3)NC(=O)[C@@H](Cc3ccccc3)NC(=O)[C@H]([C@@H](C)CC)NC(=O)[C@@H](CCCN)NC2=O)[C@@H](C)CC)CS1` [Bacitracin] ({Ileψ(thiazoline)Cys}-L[dE]IK[dOrn]I[dF]H[dD]N; lactam 4-C): in the series with KPM22 (setting [3]), the “Minimum Inhibitory Concentration KPM22” value came out at 512 µg/mL. Also, the “Fold Difference in MIC” value in the series on KPM22 (MIC BW30270 versus MIC KPM22) was found to be 8 fold. Further, the “Minimum Inhibitory Concentration BW30270” value in the series on BW30270 is 4096 µg/mL.

Polymyxin E: the “Minimum Inhibitory Concentration KPM22” value with KPM22 (setting [3]) amounted to 0.06 µg/mL. Moreover, in the series with KPM22 (MIC BW30270 versus MIC KPM22), the “Fold Difference in MIC” value is recorded as about 4 fold. For the same molecule, the “Minimum Inhibitory Concentration BW30270” value with BW30270 turned out to be 0.25 µg/mL.

Consider `O=C(N[C@H](CO)[C@H](O)c1ccc([N+](=O)[O-])cc1)C(Cl)Cl` [Chloramphenicol], for which the MIC is 2 µg/mL (≈ 6.19 µM) with KPM22 (setting [3]) and 8 µg/mL (≈ 24.8 µM) with BW30270.

Consider `CC(=O)O[C@H]1C[C@@]2(C)[C@@H](C[C@@H](O)[C@H]3[C@@]4(C)CC[C@@H](O)[C@@H](C)[C@@H]4CC[C@@]32C)/C1=C(\CCC=C(C)C)C(=O)O` [Fusidic Acid], for which the MIC turned out to be 2 µg/mL (≈ 3.87 µM) in the series on KPM22 (setting [3]) and 512 µg/mL (≈ 991 µM) with BW30270. Besides, the “Fold Difference in MIC” value in the series with KPM22 (MIC BW30270 versus MIC KPM22) was 256 fold.

Usually kcat stands for the maximal rate divided by the concentration of active sites. A word on the Km: it is the concentration of substrate that gives half-maximal velocity. For `O=C(CO)[C@H](O)[C@H](O)COP(=O)(O)O` [Ru5P, D-ribulose 5-phosphate], at kdsD, the kcat is 255 ± 16 s⁻¹ and the Km was 350 ± 80 µM.

`O=C[C@H](O)[C@H](O)COP(=O)(O)O` [D-erythrose 4-phosphate]: the “alternate substrate, product appearance” value on gutQ is given as “served as alternate substrates”.

Turning to `CC1(C)S[C@@H]2[C@H](NC(=O)[C@H](N)c3ccccc3)C(=O)N2[C@H]1C(=O)O` [Ampicillin], the “Fold Difference in MIC” value in the series on KPM22 was found to be 2 fold. Also, the MIC in the series on KPM22 (18 h) amounted to 2 µg/mL (≈ 5.72 µM); with BW30270, 4 µg/mL (≈ 11.4 µM).

In the case of `CN[C@H](CC(C)C)C(=O)N[C@H]1C(=O)N[C@@H](CC(N)=O)C(=O)N[C@H]2C(=O)N[C@H]3C(=O)N[C@H](C(=O)N[C@H](C(=O)O)c4cc(O)cc(O)c4-c4cc3ccc4O)[C@H](O)c3ccc(c(Cl)c3)Oc3cc2cc(c3O[C@@H]2O[C@H](CO)[C@@H](O)[C@H](O)[C@H]2O[C@H]2C[C@](C)(N)[C@H](O)[C@H](C)O2)Oc2ccc(cc2Cl)[C@H]1O` [Vancomycin], the MIC in the series with KPM22 (setting [3]) came to 32 µg/mL (≈ 22.1 µM); in the series with BW30270, 256 µg/mL (≈ 177 µM).

On to `O=C(Cc1cccs1)N[C@@H]1C(=O)N2C(C(=O)[O-])=C(C[n+]3ccccc3)CS[C@H]12` [Cephaloridine], for which the MIC in the series on KPM22 (setting [3]) and with BW30270 was 4 µg/mL (≈ 9.63 µM) in each case. Moreover, the “Fold Difference in MIC” value in the series with KPM22 (MIC BW30270 versus MIC KPM22) came to 1 fold.

`O=C[C@@H](O)[C@H](O)[C@H](O)COP(=O)(O)O` [A5P, d-arabinose 5-phosphate]: at kdsD, the catalytic constant (kcat) is 157 ± 4 s⁻¹ and the Michaelis-Menten constant (Km) is 610 ± 60 µM.

Take `[Zn+2]` [Zn^2+]: the “Inhibition by 10 μM Zn^2+” value at gutQ and on kdsD was “Yes” in each case.

As for `CO[C@H]1/C=C/O[C@@]2(C)Oc3c(C)c(O)c4c(O)c(c(/C=N/N5CCN(C)CC5)c(O)c4c3C2=O)NC(=O)/C(C)=C\C=C\[C@H](C)[C@H](O)[C@@H](C)[C@@H](O)[C@@H](C)[C@H](OC(C)=O)[C@@H]1C` [Rifampin], the MIC in the series with BW30270 was found to be 16 µg/mL (≈ 19.4 µM).

Take `O=C(CO)[C@@H](O)[C@H](O)[C@H](O)COP(=O)(O)O` [D-fructose 6-phosphate]: on gutQ, the “alternate substrate, product appearance” value was “served as alternate substrates”.

Take `CCCCCCCCCCCCOS(=O)(=O)[O-].[Na+]` [Sodium dodecyl sulfate (SDS), Sodium dodecyl sulfate]: the MIC was 8 µg/mL in the series on KPM22 (setting [3]) and over 32000 µg/mL with BW30270. Moreover, the “Fold Difference in MIC” value in the series with KPM22 (MIC BW30270 versus MIC KPM22, listed as sodium dodecyl sulfate, sulfate) is reported as over 4000 fold; in the series with KPM22 (MIC BW30270 versus MIC KPM22, sulfate) it was over 4000 fold.

Take `CC[C@H]1OC(=O)[C@H](C)[C@@H](O[C@H]2C[C@@](C)(OC)[C@@H](O)[C@H](C)O2)[C@H](C)[C@@H](O[C@@H]2O[C@H](C)C[C@H](N(C)C)[C@H]2O)[C@](C)(O)C[C@@H](C)C(=O)[C@H](C)[C@@H](O)[C@]1(C)O` [Erythromycin]: the MIC in the series on KPM22 (setting [3]) stood at 1 µg/mL (≈ 1.36 µM).

B1: gutQ (Escherichia coli K-12) (protein)
chain: MSEALLNAGRQTLMLELQEASRLPERLGDDFVRAANIILHCEGKVVVSGIGKSGHIGKKIAATLASTGTPAFFVHPAEALHGDLGMIESRDVMLFISYSGGAKELDLIIPRLEDKSIALLAMTGKPTSPLGLAAKAVLDISVEREACPMHLAPTSSTVNTLMMGDALAMAVMQARGFNEEDFARSHPAGALGARLLNKVHHLMRRDDAIPQVALTASVMDAMLELSRTGLGLVAVCDAQQQVQGVFTDGDLRRWLVGGGALTTPVNEAMTVGGTTLQSQSRAIDAKEILMKRKITAAPVVDENGKLTGAINLQDFYQAGII
For B1, in series [1], the Michaelis-Menten constant (Km) came to 1200 ± 100 µM and the catalytic constant (kcat) was 218 ± 4 s⁻¹. In addition, in series [2], the Michaelis constant (Km) was found to be 640 ± 80 µM and the turnover number (kcat) was found to be 242 ± 11 s⁻¹.
